“Also recorded” adds a separate entry of the source. Where two headings read alike, the source gives them in different places. One block for each molecule: values may come before it. No end group written: not given here.
What was measured:
substance P receptor = substance P receptor (Homo sapiens, UniProt P25103); settings: cited from earlier work
PC12 cells [1] = experiment: MTT assay of neurotoxicity in PC12 cells; format: cell-based; settings: for effect on MTT reduction: FIG. 1 and 2
Procedure: (§1) The MTT assay (19) was used to monitor the neurotoxicity of amyloid-β peptide. […] Inhibition of MTT reduction is a specific, early indicator of amyloid-β-mediated cytotoxicity. The PC12 cell line was used because it is the most well characterized cell line of neuronal origin and because previous studies have shown there is abundant expression of SEC receptor in this cell line.
(§2) First, the effect of amyloid-β 25-35 on MTT reduction in PC12 cells was examined (FIG. 1). PC12 cells were incubated for six (6) hours at 37° C. with amyloid-β 25-35 in several different concentrations as shown on the horizontal axis. MTT was added and the cells incubated at 37° C. for another two (2) hours. Cell extraction buffer was added and the incubation continued at 37° C. overnight. Cell extracts were then subjected to spectro-photometric analysis at 570 nm.
Second, the specificity of the effect of amyloid-β 25-35 on MTT reduction in PC12 cells was examined (FIG. 2).
(§3) In the MTT assay used herein, inhibition of cellular redox activity is measured by 3- 4,5-dimethylthiazol-2-yl!-2,5-diphenyltetrazolium bromide (MTT) by conventional procedures as described by Hansen et al. (19).

SEC receptor [2] = settings: cited from earlier work
neutrophils = settings: cited from earlier work
PC12 cells [3] = experiment: Inhibition of amyloid-β 25-35 neurotoxicity (MTT assay) in PC12 cells; format: cell-based; settings: FIG. 3 and 4
Source text: as §1, with “line. Using ^125 I peptide 105Y there is specific, saturable binding.” for “line.”
as §2, with “[…] Results” for “Cell extracts”, “reported as percent control response as determined by the difference between control cells and cells lysed prior” for “then subjected”, “incubation with MTT. […]” for “spectro-photometric analysis at 570 nm.”
as §3

neurons = settings: cited from earlier work
SEC receptor [4] = experiment: Competition for binding to the SEC receptor

Sequence of substance P receptor (P25103 whole entry, species assumed): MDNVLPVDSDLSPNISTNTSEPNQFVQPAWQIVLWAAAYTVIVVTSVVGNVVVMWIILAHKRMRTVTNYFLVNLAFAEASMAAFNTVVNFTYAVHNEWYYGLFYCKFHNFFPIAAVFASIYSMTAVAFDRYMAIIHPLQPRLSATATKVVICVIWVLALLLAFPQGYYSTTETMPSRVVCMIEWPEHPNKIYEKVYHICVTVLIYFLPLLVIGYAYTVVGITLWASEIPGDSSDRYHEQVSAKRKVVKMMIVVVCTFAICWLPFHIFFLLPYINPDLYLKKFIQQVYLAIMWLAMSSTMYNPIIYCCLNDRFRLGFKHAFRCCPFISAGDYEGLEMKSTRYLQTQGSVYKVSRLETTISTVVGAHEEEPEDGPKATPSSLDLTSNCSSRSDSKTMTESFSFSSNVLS

Molecule: CSCC[C@H](NC(=O)[C@H](CC(C)C)NC(=O)[C@H](Cc1cnc[nH]1)NC(=O)CNC(=O)[C@@H](NC(=O)[C@H](C)NC(=O)[C@H](Cc1c[nH]c2ccccc12)NC(=O)[C@H](CCC(N)=O)NC(=O)[C@H](CC(N)=O)NC(=O)CNC(=O)[C@H](CC(C)C)NC(=O)[C@H](CCCN=C(N)N)NC(=O)[C@H](CCC(N)=O)NC(=O)[C@@H]1CCC(=O)N1)C(C)C)C(N)=O [bombesin]
- binding to / recognition by the substance P receptor (substance P receptor): does not recognize

Molecule: IAGRSLNPNRVTLRYNKPFILVLFETPGNSLVFLGRISNPATK [PB145]
- neurotoxic activity of the peptide by itself (PC12 cells [1]; peptide alone): did not have any neurotoxic activity by itself

Molecule: amyloid-β
- binding to / recognition by the SEC receptor (SEC receptor [2]): bind to the SEC receptor
- binding to / recognition by the substance P receptor (substance P receptor): does not recognize
- binding to / recognition by the substance P receptor (substance P receptor; listed as Amyloid-β): do not bind to the substance P receptor
- neutrophil chemotactic effect (neutrophils): neutrophil chemotactic effects

Molecule: amyloid-β 1-28: region of the amyloid-β protein
- effect on MTT reduction (PC12 cells [1]): no effect

Molecule: amyloid-β 1-40: region of the amyloid-β protein
- effect on MTT reduction (PC12 cells [1]): effect similar to that of amyloid-β 25-35

Molecule: native α1-AT: native α1-antitrypsin, negative control
- inhibition of the effect of amyloid-β 25-35 (neurotoxicity) (PC12 cells [3]): does not

Molecule: neurokinin B
- binding to / recognition by the SEC receptor (SEC receptor [2]): approximately similar affinities

Molecule: substance K
- binding to / recognition by the SEC receptor (SEC receptor [2]): approximately similar affinities

Molecule: substance P
- blocking of amyloid-β 25-35 effects on neurons (neurons): blocked
- binding to / recognition by the SEC receptor (SEC receptor [2]): bind to the SEC receptor; also recorded: approximately similar affinities
- desensitization of the SEC receptor on neutrophils to chemotactic effects of amyloid-β (neutrophils): elicited homologous desensitization
- neutrophil chemotactic effect (neutrophils): neutrophil chemotactic effects

- competition for binding to the SEC receptor (SEC receptor [4]): compete for binding to the SEC receptor
Molecule: α1 -AT-elastase complexes: complexes of α1-antitrypsin with elastase which compete for binding to the SEC receptor
- inhibition of the effect of amyloid-β 25-35 (neurotoxicity) (PC12 cells [3]): inhibit the effect of amyloid-β 25-35
